Literature values in US20210196697A1, “COMBINATION THERAPIES FOR TREATING BIPOLAR DISORDER AND ADHD, AND METHODS FOR USING THE SAME” (PsychNostics, LLC, priority 2017, published 2021).

Assays:
[1] = tested on: SK-N-SH Neuroblastoma Cells; conditions: addition of carbachol to [3H]cytidine-prelabeled cells

## CN1CCN(C2=Nc3cc(Cl)ccc3Nc3ccccc32)CC1 [clozapine]
Serum / blood plasma
  therapeutic level / therapeutic reference range: 200 to 1000 ng/mL

## C[N+](C)(C)CCOC(N)=O [carbachol]
[1]
  accumulation of labeled CDP-DAG: four to fivefold increase

## COC(=O)C(c1ccccc1)C1CCCCN1 (centres unmarked) [MPH, methylphenidate]
ADHD patients
  effect on MPR: reduces the MPR in a dose dependant manner

## [Li] [Li, lithium]
Lithium in BD patients
  therapeutic level: around 1.2 mM
  toxic level: about 2 mM
